Assay results as given in the NIST ThermoML archive (doi:10.1021/acs.jced.8b00554).

Test: xn = mol fraction of the nth substance listed
Conditions: Liquid, Vibrating tube method

CCCCCCCCCC [decane] + CCCO
mass density [kg/m3]
Conditions	353.15 K	363.15 K
100 kPa, x2 = 0.1391	–	664.41
100 kPa, x2 = 0.1907	–	663.86
100 kPa, x2 = 0.3001	–	664.03
100 kPa, x2 = 0.4326	–	666.18
100 kPa, x2 = 0.6863	–	680.95
100 kPa, x2 = 0.8711	–	705.01
1000 kPa, x2 = 0.1907	–	665.28
1010 kPa, x2 = 0.1391	–	665.85
1010 kPa, x2 = 0.3001	–	666.15
1010 kPa, x2 = 0.6863	–	682.3
1010 kPa, x2 = 0.8711	–	706.22
1020 kPa, x2 = 0.4326	–	667.3
2000 kPa, x2 = 0.1391	–	667.06
2000 kPa, x2 = 0.1907	–	666.5
2000 kPa, x2 = 0.6863	–	683.55
2000 kPa, x2 = 0.8711	–	707.37
2020 kPa, x2 = 0.3001	–	667.4
2020 kPa, x2 = 0.4326	–	668.51
3000 kPa, x2 = 0.3001	–	668.59
3010 kPa, x2 = 0.1391	–	668.24
3010 kPa, x2 = 0.4326	–	669.77
3010 kPa, x2 = 0.6863	–	684.83
3020 kPa, x2 = 0.1907	–	667.69
3020 kPa, x2 = 0.8711	–	708.57
4010 kPa, x2 = 0.1391	–	669.44
4010 kPa, x2 = 0.1907	–	668.95
4010 kPa, x2 = 0.3001	–	669.83
4010 kPa, x2 = 0.6863	–	686.13
4010 kPa, x2 = 0.8711	–	709.79
4020 kPa, x2 = 0.4326	–	671.06
5000 kPa, x2 = 0.4326	–	672.31
5010 kPa, x2 = 0.1907	–	670.1
5010 kPa, x2 = 0.8711	–	711.06
5020 kPa, x2 = 0.1391	–	670.64
5020 kPa, x2 = 0.3001	–	671.07
5020 kPa, x2 = 0.6863	–	687.44
6010 kPa, x2 = 0.3001	–	672.31
6010 kPa, x2 = 0.8711	–	712.33
6020 kPa, x2 = 0.1391	–	671.83
6020 kPa, x2 = 0.1907	–	671.28
6020 kPa, x2 = 0.4326	–	673.61
6020 kPa, x2 = 0.6863	–	688.73
7010 kPa, x2 = 0.1907	–	672.49
7010 kPa, x2 = 0.6863	–	690.06
7020 kPa, x2 = 0.1391	–	673.03
7020 kPa, x2 = 0.3001	–	673.57
7020 kPa, x2 = 0.4326	–	674.92
7020 kPa, x2 = 0.8711	–	713.62
8000 kPa, x2 = 0.3001	–	674.82
8000 kPa, x2 = 0.4326	–	676.22
8000 kPa, x2 = 0.6863	–	691.39
8010 kPa, x2 = 0.1907	–	673.78
8020 kPa, x2 = 0.1391	–	674.3
8020 kPa, x2 = 0.8711	–	714.86
9000 kPa, x2 = 0.1391	–	675.46
9000 kPa, x2 = 0.3001	–	676.11
9000 kPa, x2 = 0.6863	–	692.72
9010 kPa, x2 = 0.1907	–	675
9010 kPa, x2 = 0.4326	–	677.52
9020 kPa, x2 = 0.8711	–	716.13
10000 kPa, x2 = 0.1391	–	676.67
10000 kPa, x2 = 0.1907	–	676.19
10010 kPa, x2 = 0.3001	690.11	677.41
10010 kPa, x2 = 0.6863	–	694.02
10010 kPa, x2 = 0.8711	731.37	717.4
10020 kPa, x2 = 0.1907	688.55	–
10020 kPa, x2 = 0.4326	–	678.87
11000 kPa, x2 = 0.1391	–	677.93
11000 kPa, x2 = 0.6863	710.38	–
11010 kPa, x2 = 0.3001	691.26	678.66
11010 kPa, x2 = 0.4326	694.72	–
11010 kPa, x2 = 0.6863	–	695.33
11020 kPa, x2 = 0.1391	689.4	–
11020 kPa, x2 = 0.1907	689.66	677.43
11020 kPa, x2 = 0.4326	–	680.14
11020 kPa, x2 = 0.8711	732.51	718.66
12000 kPa, x2 = 0.1391	–	679.09
12000 kPa, x2 = 0.1907	–	678.73
12000 kPa, x2 = 0.3001	–	679.92
12010 kPa, x2 = 0.1391	690.47	–
12010 kPa, x2 = 0.1907	690.83	–
12010 kPa, x2 = 0.4326	695.89	681.46
12010 kPa, x2 = 0.6863	711.53	696.59
12010 kPa, x2 = 0.8711	733.61	719.87
12020 kPa, x2 = 0.3001	692.38	–
13000 kPa, x2 = 0.3001	693.53	–
13000 kPa, x2 = 0.8711	734.68	–
13010 kPa, x2 = 0.1391	691.56	680.3
13010 kPa, x2 = 0.1907	–	679.91
13010 kPa, x2 = 0.3001	–	681.16
13010 kPa, x2 = 0.4326	–	682.71
13010 kPa, x2 = 0.6863	–	697.91
13020 kPa, x2 = 0.1907	691.91	–
13020 kPa, x2 = 0.4326	697.03	–
13020 kPa, x2 = 0.6863	712.69	–
13020 kPa, x2 = 0.8711	–	721.04
14000 kPa, x2 = 0.1907	–	681.11
14000 kPa, x2 = 0.4326	–	683.94
14010 kPa, x2 = 0.1391	–	681.47
14010 kPa, x2 = 0.1907	692.99	–
14010 kPa, x2 = 0.3001	–	682.38
14020 kPa, x2 = 0.1391	692.62	–
14020 kPa, x2 = 0.3001	694.63	–
14020 kPa, x2 = 0.4326	698.13	–
14020 kPa, x2 = 0.6863	713.81	699.14
14020 kPa, x2 = 0.8711	735.8	722.27
15000 kPa, x2 = 0.1907	–	682.24
15000 kPa, x2 = 0.4326	–	685.14
15000 kPa, x2 = 0.6863	–	700.32
15010 kPa, x2 = 0.3001	–	683.55
15010 kPa, x2 = 0.4326	699.22	–
15010 kPa, x2 = 0.6863	714.9	–
15010 kPa, x2 = 0.8711	736.86	723.44
15020 kPa, x2 = 0.1391	693.66	682.58
15020 kPa, x2 = 0.1907	694.05	–
15020 kPa, x2 = 0.3001	695.7	–
16000 kPa, x2 = 0.3001	–	684.7
16000 kPa, x2 = 0.4326	–	686.33
16010 kPa, x2 = 0.1391	694.64	683.66
16010 kPa, x2 = 0.1907	695.08	683.38
16010 kPa, x2 = 0.4326	700.29	–
16010 kPa, x2 = 0.6863	715.98	–
16010 kPa, x2 = 0.8711	–	724.56
16020 kPa, x2 = 0.3001	696.78	–
16020 kPa, x2 = 0.6863	–	701.55
16020 kPa, x2 = 0.8711	737.89	–
17000 kPa, x2 = 0.3001	–	685.86
17000 kPa, x2 = 0.4326	701.32	–
17010 kPa, x2 = 0.1391	–	684.77
17010 kPa, x2 = 0.1907	696.15	684.57
17010 kPa, x2 = 0.3001	697.84	–
17010 kPa, x2 = 0.4326	–	687.43
17010 kPa, x2 = 0.6863	717.03	–
17020 kPa, x2 = 0.1391	695.67	–
17020 kPa, x2 = 0.6863	–	702.7
17020 kPa, x2 = 0.8711	738.93	725.68
18000 kPa, x2 = 0.1391	–	685.82
18000 kPa, x2 = 0.1907	–	685.6
18000 kPa, x2 = 0.3001	–	686.93
18010 kPa, x2 = 0.4326	702.35	–
18010 kPa, x2 = 0.6863	718.05	703.81
18010 kPa, x2 = 0.8711	–	726.78
18020 kPa, x2 = 0.1391	696.65	–
18020 kPa, x2 = 0.1907	697.1	–
18020 kPa, x2 = 0.3001	698.82	–
18020 kPa, x2 = 0.4326	–	688.58
18020 kPa, x2 = 0.8711	739.92	–
19000 kPa, x2 = 0.1391	697.56	686.79
19000 kPa, x2 = 0.4326	–	689.63
19000 kPa, x2 = 0.8711	–	727.82
19010 kPa, x2 = 0.1907	698.02	686.57
19010 kPa, x2 = 0.3001	699.8	687.98
19020 kPa, x2 = 0.4326	703.33	–
19020 kPa, x2 = 0.6863	719.04	704.89
19020 kPa, x2 = 0.8711	740.89	–
20000 kPa, x2 = 0.3001	–	688.93
20000 kPa, x2 = 0.4326	704.33	–
20000 kPa, x2 = 0.6863	720.06	–
20000 kPa, x2 = 0.8711	741.82	728.82
20010 kPa, x2 = 0.1391	698.43	687.72
20010 kPa, x2 = 0.1907	698.94	687.53
20010 kPa, x2 = 0.3001	700.68	–
20010 kPa, x2 = 0.4326	–	690.72
20010 kPa, x2 = 0.6863	–	706
